Results published in patent US20070093436A1, “Drop1, a novel marker for carcinogenesis” (Deutsches Kresforschungszentrum Stiftung Des Offentlichen …, priority 2003, published 2007).

Tests used:
Assay type in all cases: cell-based, human
[1] = tested on: Drop1 mRNA in cell lines exhibiting a low level of Drop1 (GG and M130); assay: Treatment of cell lines exhibiting a low level of Drop1 with demethylating agents
Procedure: (§1) Treatment of cells with methyltransferase inhibitors was carried out as described by Widschwendter et al., J. Nat. Cancer Inst. 92 (2000), 826-832). All-trans-retinoic acid (ATRA) and 5-aza-deoxycytidine (Aza-CdR) were from Sigma Chemical Co. (St. Louis, Mo.). 1 mM solutions were prepared in dimethyl sulfoxide and diluted in culture medium. Cells were incubated either for 5 days, with […] Aza-CdR, for 24 h with […], or for 5 days with […] Aza-CdR followed by 24 h with 1 mM ATRA, or left untreated. They were detached with trypsin (0.05%)-EDTA (0.02%) in Dulbecco's phosphate-buffered saline (PBS), washed, and pelleted.
(§2) The possibility that promoter methylation might downregulate Drop1 was investigated.

[2] = tested on: Drop1 expression in GG cells; assay: Treatment of cells with methyltransferase inhibitors, Drop1 expression by quantitative PCR
Procedure: (§3) The differential expression was validated by quantitative PCR and analyzed in the Agilent 2100 Bioanalyzer (Agilent Technologies, Waldbronn, Germany, PC Hewlett packard, Vectra VL, Hewlett packard, Boeblingen; Software Agilent 2100 Bio Sizing 1.3, Agilent Technologies, Waldbronn) or by semi-quantitative analysis of the resulting cDNA on a 2% agarose gel.
(§4) • 1 μl cDNA of the 20 μl RT-mixture (corresponding to 0.5 ng of cDNA); • 1 μl Drop1 Upper primer (5′ […] ATA 3′ corresponding to positions 8255-8278 in exon 53), 20 μM; • 1 μl Drop1 Lower primer (Lower primer 5′ […] 3′, complementary to positions 8500-8473 in exon 55), 20 μM; • 5 μl cDNA-PCR reaction buffer, 10×; • 1 μl dNTP-Mix, 10 mM; • 1 μl advantage-cDNA-polymerase mix, 50×;
(§5) Steps 1 to 3 were repeated 34 to 46 times. After individual cycles in that range, aliquots were removed and run on a gel. The amount of PCR-product from the first cycle producing a visible band of 246 bp was then quantitated using the Agilent system and an intercalating dye to detect double-stranded DNA. Under these conditions, quantitative PCR detected Drop1 plus enaptin, yet not cpg2, and the various nexins.
as §1, §2

[3] = tested on: Drop1 expression in M130 cells; assay: as above
Procedure: as §3, §4, §5, §1, §2

[4] = tested on: Drop1 expression in SKOV-3 cells; assay: as above
Procedure: as §3, §4, §5, §1, §2

[5] = 5 days 2.5 mM Aza-CdR, 24 h 1 mM ATRA, or 5 days Aza-CdR followed by 24 h ATRA

Structure (SMILES): CC1=C(/C=C/C(C)=C/C=C/C(C)=C/C(=O)O)C(C)(C)CCC1 [ATRA, all-trans-retinoic acid]
- Increase of Drop1 mRNA [1]: an order of magnitude
- Increase of Drop1 expression versus cells in medium [2]: 2.5 fold
- Expression of downregulated Drop1 in cells treated with inhibitors of gene methylation [2, 5]: 1.3 × 10^−4
- Increase of Drop1 expression versus cells in medium [3]: 18 fold
- Expression of downregulated Drop1 in cells treated with inhibitors of gene methylation [3, 5]: 1.8 × 10^−2
- Increase of Drop1 expression ([4]; SKOV-3, a cell line with a physiological level of Drop1): No increase of expression
- Expression of downregulated Drop1 in cells treated with inhibitors of gene methylation ([4]; SKOV-3 cells, 5 days 2.5 mM Aza-CdR, 24 h 1 mM ATRA, or 5 days Aza-CdR followed by 24 h ATRA): 2.2 × 10^−4
